According to patent EP3625243B1, “TAILORED CYCLODEPSIPEPTIDES AS POTENT NON-COVALENT SERINE PROTEASE INHIBITORS” (Universität Duisburg-Essen, priority 2017, dated 2018):
Read-outs that look alike come from different tables or passages of the source.

How the values were obtained:
[1] = biological target: T1, human pancreas chymotrypsin (Homo sapiens, UniProt P17538); assay: Chromogenic enzyme activity assay, chymotrypsin; format: biochemical; conditions: Table 2, substrate AAF-pNA, read-out: Ki Chymo- trypsin [a]
T1 construct: purchased Sigma-Aldrich SRP6509-100

HTRA2 = biological target: T2, HTRA2 (Homo sapiens, UniProt O43464); assay: Chromogenic enzyme activity assay, HTRA2
T2 sequence (O43464 134-458): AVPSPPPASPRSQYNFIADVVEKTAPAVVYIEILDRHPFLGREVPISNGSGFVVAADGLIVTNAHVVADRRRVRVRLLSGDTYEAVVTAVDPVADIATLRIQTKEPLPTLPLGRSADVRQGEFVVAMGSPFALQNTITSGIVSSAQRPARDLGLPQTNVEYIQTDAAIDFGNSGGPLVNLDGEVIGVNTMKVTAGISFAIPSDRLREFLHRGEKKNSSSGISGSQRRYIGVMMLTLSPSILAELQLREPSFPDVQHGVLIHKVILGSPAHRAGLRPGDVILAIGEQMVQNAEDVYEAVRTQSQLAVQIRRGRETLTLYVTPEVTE

[2] = biological target: T3, human neutrophil elastase (Homo sapiens, UniProt P08246); assay: Chromogenic enzyme activity assay, elastase; format: biochemical
T3 construct: purchased Enzo Life Sciences BML-SE284
T3 sequence (P08246 30-267): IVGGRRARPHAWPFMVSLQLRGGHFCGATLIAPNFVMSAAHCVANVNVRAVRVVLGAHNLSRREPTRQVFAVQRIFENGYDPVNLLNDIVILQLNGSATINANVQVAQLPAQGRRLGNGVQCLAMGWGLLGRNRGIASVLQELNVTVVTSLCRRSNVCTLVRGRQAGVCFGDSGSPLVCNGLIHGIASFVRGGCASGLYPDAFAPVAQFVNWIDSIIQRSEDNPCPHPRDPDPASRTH

HTRA1 = HTRA1 (Homo sapiens, UniProt Q92743); assay: Chromogenic enzyme activity assay, HTRA1
HTRA3 = HTRA3 (Homo sapiens, UniProt P83110); assay: Chromogenic enzyme activity assay, HTRA3
bovine pancreas trypsin = biological target: T4, bovine pancreas trypsin (Bos taurus, UniProt P00760); assay: Chromogenic enzyme activity assay, trypsin; format: biochemical; conditions: Table 2, read-out: Ki Trypsin [c]
T4 construct: purchased Sigma-Aldrich T1426
T4 sequence (P00760 24-246): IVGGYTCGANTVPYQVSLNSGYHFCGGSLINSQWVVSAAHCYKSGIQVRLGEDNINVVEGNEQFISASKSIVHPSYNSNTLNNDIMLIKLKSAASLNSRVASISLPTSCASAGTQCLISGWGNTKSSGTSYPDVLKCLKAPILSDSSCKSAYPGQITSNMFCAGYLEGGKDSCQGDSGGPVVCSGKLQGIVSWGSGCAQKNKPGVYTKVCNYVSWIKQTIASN

[3] = Table 3, read-out: Ki Elastase [b]
[4] = Table 2, substrate AAPV-pNA, read-out: Ki Elastase [b]

Sequence of HTRA3 (P83110 111-436): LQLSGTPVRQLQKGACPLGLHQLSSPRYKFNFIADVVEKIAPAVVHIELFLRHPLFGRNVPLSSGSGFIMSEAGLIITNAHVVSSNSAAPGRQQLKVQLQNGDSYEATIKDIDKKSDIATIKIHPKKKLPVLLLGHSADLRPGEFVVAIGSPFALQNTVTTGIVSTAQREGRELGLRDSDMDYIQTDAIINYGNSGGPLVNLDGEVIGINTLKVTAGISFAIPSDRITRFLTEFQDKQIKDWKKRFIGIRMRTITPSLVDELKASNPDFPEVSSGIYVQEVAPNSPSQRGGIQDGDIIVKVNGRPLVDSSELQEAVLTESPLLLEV
Sequence of HTRA1 (Q92743 158-480): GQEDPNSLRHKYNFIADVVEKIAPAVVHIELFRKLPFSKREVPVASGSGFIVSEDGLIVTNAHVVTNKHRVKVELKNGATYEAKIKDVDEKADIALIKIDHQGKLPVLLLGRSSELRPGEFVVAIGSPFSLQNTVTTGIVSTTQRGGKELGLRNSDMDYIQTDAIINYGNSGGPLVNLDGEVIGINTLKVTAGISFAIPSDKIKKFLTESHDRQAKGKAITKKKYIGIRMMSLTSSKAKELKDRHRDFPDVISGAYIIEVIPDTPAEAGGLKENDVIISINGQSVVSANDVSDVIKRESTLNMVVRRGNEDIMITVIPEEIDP
T1 sequence (P17538 19-263): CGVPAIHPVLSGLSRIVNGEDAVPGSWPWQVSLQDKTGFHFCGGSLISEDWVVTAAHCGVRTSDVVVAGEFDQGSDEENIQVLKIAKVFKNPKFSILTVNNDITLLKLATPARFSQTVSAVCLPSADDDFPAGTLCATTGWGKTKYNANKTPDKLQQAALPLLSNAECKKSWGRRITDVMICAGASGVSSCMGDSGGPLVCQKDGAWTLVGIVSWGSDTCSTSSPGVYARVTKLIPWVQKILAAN

| SMILES | Ki [1] [µM] | Ki (HTRA2) [µM] | Ki [2, 3] [µM] | Ki (HTRA1) [µM] | Ki (HTRA3) [µM] | also measured |
| --- | --- | --- | --- | --- | --- | --- |
| CC(C)C[C@H]1C(=O)N(C)[C@@H](Cc2ccccc2)C(=O)N[C@@H](C(C)C)C(=O)O[C@H](c2ccccc2)[C@H](NC(=O)[C@H](C)NC(=O)[C@H](C)NC(=O)OCc2ccccc2)C(=O)N[C@@H](C(C)C)C(=O)N[C@H]2CC[C@@H](O)N1C2=O [Ahp3] | > 50 |  |  |  |  |  |
| CC(C)C[C@H]1C(=O)N(C)[C@@H](Cc2ccccc2)C(=O)N[C@@H](Cc2ccccc2)C(=O)O[C@H](C)[C@H](NC(=O)[C@H](C)NC(=O)[C@H](C)NC(=O)OCc2ccccc2)C(=O)N[C@@H](C(C)C)C(=O)N[C@H]2CC[C@@H](O)N1C2=O [Ahp8] | > 50 |  |  |  |  |  |
| CC(C)C[C@H]1C(=O)N(C)[C@@H](Cc2ccccc2)C(=O)N[C@@H](C(C)C)C(=O)O[C@H](C)[C@H](NC(=O)[C@H](C)NC(=O)[C@H](C)NC(=O)OCc2ccccc2)C(=O)N[C@@H](C)C(=O)N[C@H]2CC[C@@H](O)N1C2=O [Ahp13] |  | 0.26 | 0.026 | 4.26 | 0.98 |  |
| CC(C)C[C@H]1C(=O)N(C)[C@@H](Cc2ccccc2)C(=O)N[C@@H](C(C)C)C(=O)O[C@H](C)[C@H](NC(=O)[C@H](Cc2ccccc2)NC(=O)[C@H](C)NC(=O)OCc2ccccc2)C(=O)N[C@@H](C(C)C)C(=O)N[C@H]2CC[C@@H](O)N1C2=O [Ahp4] | > 50 |  |  |  |  | HTRA2 inhibition potency relative to Ahp1 (HTRA2; compared with Ahp1): more than ten-fold more potent |
| CC(C)[C@@H]1NC(=O)[C@@H](NC(=O)[C@H](C)NC(=O)[C@H](C)NC(=O)OCc2ccccc2)[C@@H](C)OC(=O)[C@H](C(C)C)NC(=O)[C@H](Cc2ccccc2)N(C)C(=O)[C@H](Cc2ccccc2)N2C(=O)[C@H](CC[C@H]2O)NC1=O [Ahp6] | > 50 |  |  |  |  |  |
| CC(C)C[C@H]1C(=O)N(C)[C@@H](Cc2ccccc2)C(=O)N[C@@H](C(C)C)C(=O)O[C@H](C)[C@H](NC(=O)[C@H](C)NC(=O)[C@H](C)NC(=O)OCc2ccccc2)C(=O)N[C@@H](Cc2ccccc2)C(=O)N[C@H]2CC[C@@H](O)N1C2=O [Ahp2] |  | > 50 |  | > 50 | > 50 | Ki [2, 4]: > 50 µM; Ki (bovine pancreas trypsin): > 50 µM |
| CC[C@@H]1NC(=O)[C@@H](NC(=O)[C@H](C)NC(=O)[C@H](C)NC(=O)OCc2ccccc2)[C@@H](C)OC(=O)[C@H](C(C)C)NC(=O)[C@H](Cc2ccccc2)N(C)C(=O)[C@H](CC(C)C)N2C(=O)[C@H](CC[C@H]2O)NC1=O [Ahp14] |  | 0.7 | 0.47 | 2.97 | 1.46 |  |
| CC(C)C[C@H]1C(=O)N(C)[C@@H](C)C(=O)N[C@@H](C(C)C)C(=O)O[C@H](C)[C@H](NC(=O)[C@H](C)NC(=O)[C@H](C)NC(=O)OCc2ccccc2)C(=O)N[C@@H](C(C)C)C(=O)N[C@H]2CC[C@@H](O)N1C2=O [Ahp7] | > 50 | 6.9 ± 1.5 |  | > 50 | > 50 | Ki [2, 4]: 0.11 ± 0.02 µM |
| CC(C)C[C@H]1C(=O)N(C)[C@@H](Cc2ccccc2)C(=O)N[C@@H](C(C)C)C(=O)O[C@H](C)[C@H](NC(=O)[C@H](C)NC(=O)[C@H](C)NC(=O)OCc2ccccc2)C(=O)N[C@@H](C(C)C)C(=O)N[C@H]2CC[C@@H](O)N1C2=O [Ahp1] | > 50 | 4.1 ± 0.4 |  | 8.2 ± 2.7 | 3 ± 0.5 | Ki [2, 4]: 0.019 ± 0.003 µM |
| CC(C)C[C@H]1C(=O)N(C)[C@@H](Cc2ccccc2)C(=O)N[C@@H](C(C)C)C(=O)O[C@H](C(C)C)[C@H](NC(=O)[C@H](C)NC(=O)[C@H](C)NC(=O)OCc2ccccc2)C(=O)N[C@@H](C(C)C)C(=O)N[C@H]2CC[C@@H](O)N1C2=O [Ahp10] | > 50 | 0.26 ± 0.03 |  | 2.4 ± 0.6 | 0.48 ± 0.07 | Ki (HTRA2) (HTRA2; Table 2): sub-µM; Ki [2, 4]: 0.018 ± 0.004 µM |

The next lines start with results.

| Ki [1] [µM] | Ki (HTRA2) [µM] | Ki [2, 3] [µM] | Ki (HTRA1) [µM] | Ki (HTRA3) [µM] | SMILES | also measured |
| --- | --- | --- | --- | --- | --- | --- |
|  | > 50 | 0.5 | > 50 | > 50 | CCC(C)[C@@H]1NC(=O)[C@@H](NC(=O)[C@H](C)NC(=O)[C@H](C)NC(=O)OCc2ccccc2)[C@@H](C)OC(=O)[C@H](C(C)C)NC(=O)[C@H](Cc2ccccc2)N(C)C(=O)[C@H](CC(C)C)N2C(=O)[C@H](CC[C@H]2O)NC1=O (some centres unmarked) [Ahp16] |  |
|  |  | 0.2 | > 50 | 17.9 | C#CC[C@@H]1NC(=O)[C@@H](NC(=O)[C@H](C)NC(=O)[C@H](C)NC(=O)OCc2ccccc2)[C@@H](C)OC(=O)[C@H](C(C)C)NC(=O)[C@H](Cc2ccccc2)N(C)C(=O)[C@H](CC(C)C)N2C(=O)[C@H](CC[C@H]2O)NC1=O [Ahp18] |  |
|  | 1.38 | 0.16 | > 50 | 0.84 | C=CC[C@@H]1NC(=O)[C@@H](NC(=O)[C@H](C)NC(=O)[C@H](C)NC(=O)OCc2ccccc2)[C@@H](C)OC(=O)[C@H](C(C)C)NC(=O)[C@H](Cc2ccccc2)N(C)C(=O)[C@H](CC(C)C)N2C(=O)[C@H](CC[C@H]2O)NC1=O [Ahp17] |  |
|  | 0.69 | 0.13 | 7 | > 50 | CCC[C@@H]1NC(=O)[C@@H](NC(=O)[C@H](C)NC(=O)[C@H](C)NC(=O)OCc2ccccc2)[C@@H](C)OC(=O)[C@H](C(C)C)NC(=O)[C@H](Cc2ccccc2)N(C)C(=O)[C@H](CC(C)C)N2C(=O)[C@H](CC[C@H]2O)NC1=O [Ahp15] |  |
|  |  | > 50 |  |  | CC(C)C[C@H]1C(=O)N(C)[C@@H](Cc2ccccc2)C(=O)N[C@@H](C(C)C)C(=O)O[C@H](C)[C@H](NC(=O)[C@H](C)NC(=O)[C@H](C)NC(=O)OCc2ccccc2)C(=O)N[C@@H](C2CCCCC2)C(=O)N[C@H]2CC[C@@H](O)N1C2=O [Ahp21] | Ki (HTRA2; read-out: Ki HTRA2 [a], Table 3, human HTRA proteases): > 50 µM; Ki (HTRA1; read-out: Ki HTRA1 [a], Table 3, human HTRA proteases): > 50 µM; Ki (HTRA3; read-out: Ki HTRA3 [a], Table 3, human HTRA proteases): > 50 µM |
